Reference: BigSolDB 2.1

COc1cc(Cl)c(OC)cc1N
Settings	solubility (mole fraction)
in ethanol, 279.35 K	0.00274
in ethanol, 282.65 K	0.00327
in ethanol, 286.45 K	0.00386
in ethanol, 289.55 K	0.00447
in ethanol, 292.15 K	0.00497
in ethanol, 295.55 K	0.00579
in ethanol, 299.45 K	0.00695
in ethanol, 303.05 K	0.00821
in ethanol, 305.85 K	0.00938
in ethanol, 310.25 K	0.0115
in ethanol, 313.95 K	0.0137
in ethanol, 317.65 K	0.0164
in ethanol, 321.55 K	0.0201
in ethanol, 325.05 K	0.024
in ethanol, 328.65 K	0.0289
in ethanol, 331.55 K	0.0344
in ethanol, 335.25 K	0.0416
in m-xylene, 277.35 K	0.00495
in m-xylene, 281.85 K	0.00615
in m-xylene, 286.05 K	0.00739
in m-xylene, 289.95 K	0.00877
in m-xylene, 292.85 K	0.0103
in m-xylene, 296.25 K	0.012
in m-xylene, 299.35 K	0.0139
in m-xylene, 302.35 K	0.016
in m-xylene, 305.55 K	0.0186
in m-xylene, 309.25 K	0.0219
in m-xylene, 312.75 K	0.0262
in m-xylene, 316.95 K	0.0318
in m-xylene, 321.25 K	0.0386
in m-xylene, 325.05 K	0.0466
in m-xylene, 328.65 K	0.0561
in m-xylene, 332.35 K	0.0669
in m-xylene, 335.65 K	0.0791
in methanol, 278.05 K	0.00282
in methanol, 282.45 K	0.00342
in methanol, 285.85 K	0.00399
in methanol, 289.45 K	0.00465
in methanol, 292.75 K	0.0054
in methanol, 296.65 K	0.00634
in methanol, 299.85 K	0.00734
in methanol, 303.35 K	0.00852
in methanol, 306.55 K	0.0099
in methanol, 309.95 K	0.0115
in methanol, 313.45 K	0.0134
in methanol, 316.45 K	0.0156
in methanol, 319.35 K	0.0181
in methanol, 322.45 K	0.0212
in methanol, 325.45 K	0.0247
in methanol, 328.85 K	0.0289
in o-xylene, 278.25 K	0.0058
in o-xylene, 281.85 K	0.00699
in o-xylene, 285.55 K	0.00831
in o-xylene, 289.15 K	0.00989
in o-xylene, 292.75 K	0.0117
in o-xylene, 296.05 K	0.0136
in o-xylene, 299.45 K	0.0158
in o-xylene, 303.25 K	0.0184
in o-xylene, 307.05 K	0.0214
in o-xylene, 310.35 K	0.0252
in o-xylene, 313.65 K	0.0298
in o-xylene, 317.55 K	0.0358
in o-xylene, 321.85 K	0.0443
in o-xylene, 326.25 K	0.0549
in o-xylene, 330.95 K	0.0677
in o-xylene, 335.05 K	0.0816
in p-xylene, 288.55 K	0.00855
in p-xylene, 291.65 K	0.00985
in p-xylene, 294.95 K	0.0115
in p-xylene, 298.45 K	0.0134
in p-xylene, 302.25 K	0.0158
in p-xylene, 306.05 K	0.0186
in p-xylene, 309.65 K	0.022
in p-xylene, 313.55 K	0.026
in p-xylene, 317.65 K	0.031
in p-xylene, 321.25 K	0.0371
in p-xylene, 325.25 K	0.0447
in p-xylene, 329.55 K	0.0539
in p-xylene, 334.25 K	0.0651
in toluene, 277.65 K	0.0065
in toluene, 281.95 K	0.00831
in toluene, 286.05 K	0.0101
in toluene, 290.05 K	0.0126
in toluene, 293.35 K	0.0146
in toluene, 296.45 K	0.0169
in toluene, 299.65 K	0.0194
in toluene, 302.75 K	0.0224
in toluene, 306.25 K	0.0263
in toluene, 309.95 K	0.0312
in toluene, 313.75 K	0.0373
in toluene, 317.65 K	0.0447
in toluene, 321.75 K	0.0536
in toluene, 325.45 K	0.0641
in toluene, 328.95 K	0.0761
in toluene, 332.25 K	0.0894
in toluene, 335.35 K	0.104

COc1cc([N+](=O)[O-])c(OC)cc1Cl
Settings	solubility (mole fraction)
in ethanol, 276.95 K	0.00042
in ethanol, 281.05 K	0.000522
in ethanol, 285.25 K	0.000644
in ethanol, 288.25 K	0.000757
in ethanol, 291.45 K	0.000892
in ethanol, 295.75 K	0.00109
in ethanol, 300.15 K	0.00135
in ethanol, 305.55 K	0.00172
in ethanol, 310.45 K	0.00219
in ethanol, 314.85 K	0.00274
in ethanol, 319.65 K	0.0034
in ethanol, 323.65 K	0.00409
in ethanol, 327.25 K	0.0048
in ethanol, 330.25 K	0.00558
in ethanol, 333.35 K	0.00649
in ethanol, 336.65 K	0.00764
in ethanol, 340.45 K	0.00921
in m-xylene, 277.05 K	0.00728
in m-xylene, 279.95 K	0.00788
in m-xylene, 283.15 K	0.00872
in m-xylene, 286.15 K	0.00994
in m-xylene, 290.05 K	0.0118
in m-xylene, 295.35 K	0.0146
in m-xylene, 300.75 K	0.0178
in m-xylene, 305.05 K	0.0209
in m-xylene, 308.85 K	0.024
in m-xylene, 312.15 K	0.0272
in m-xylene, 315.45 K	0.0305
in m-xylene, 318.55 K	0.0341
in m-xylene, 321.75 K	0.0382
in m-xylene, 325.05 K	0.0432
in m-xylene, 328.45 K	0.049
in m-xylene, 332.05 K	0.0561
in m-xylene, 335.35 K	0.0645
in m-xylene, 338.95 K	0.0747
in methanol, 279.35 K	0.000449
in methanol, 282.75 K	0.000517
in methanol, 285.55 K	0.000598
in methanol, 288.85 K	0.000716
in methanol, 293.45 K	0.000895
in methanol, 297.55 K	0.00109
in methanol, 301.75 K	0.00131
in methanol, 305.85 K	0.00156
in methanol, 309.55 K	0.00187
in methanol, 313.25 K	0.00223
in methanol, 316.85 K	0.00266
in methanol, 320.75 K	0.00318
in methanol, 324.85 K	0.00383
in methanol, 329.05 K	0.00464
in o-xylene, 277.75 K	0.00864
in o-xylene, 280.45 K	0.00956
in o-xylene, 283.55 K	0.0107
in o-xylene, 287.05 K	0.0123
in o-xylene, 291.45 K	0.0145
in o-xylene, 296.25 K	0.0174
in o-xylene, 301.25 K	0.0209
in o-xylene, 305.65 K	0.0245
in o-xylene, 309.45 K	0.0283
in o-xylene, 313.25 K	0.0323
in o-xylene, 316.85 K	0.0367
in o-xylene, 320.55 K	0.0418
in o-xylene, 323.95 K	0.0476
in o-xylene, 327.55 K	0.0544
in o-xylene, 331.35 K	0.0624
in o-xylene, 335.25 K	0.0719
in o-xylene, 339.35 K	0.0831
in p-xylene, 289.55 K	0.0126
in p-xylene, 293.65 K	0.0145
in p-xylene, 297.55 K	0.0168
in p-xylene, 301.95 K	0.0198
in p-xylene, 306.15 K	0.023
in p-xylene, 310.25 K	0.0266
in p-xylene, 313.85 K	0.0304
in p-xylene, 317.55 K	0.0347
in p-xylene, 321.15 K	0.0396
in p-xylene, 324.65 K	0.0454
in p-xylene, 328.45 K	0.0522
in p-xylene, 332.35 K	0.0604
in p-xylene, 336.65 K	0.07
in toluene, 277.45 K	0.00969
in toluene, 280.55 K	0.0107
in toluene, 283.85 K	0.0122
in toluene, 287.85 K	0.0145
in toluene, 293.05 K	0.0178
in toluene, 297.95 K	0.0211
in toluene, 301.85 K	0.0241
in toluene, 305.35 K	0.0273
in toluene, 308.75 K	0.0308
in toluene, 312.35 K	0.0347
in toluene, 315.85 K	0.0393
in toluene, 319.45 K	0.045
in toluene, 323.45 K	0.052
in toluene, 327.75 K	0.061
in toluene, 332.75 K	0.0726
in toluene, 337.35 K	0.0852
